Reference: PubChem BioAssay AID248 (DTP/NCI, 2004)
“And” between values parts separate entries of the source, which are not always exact repeats. Equal entries are not always repeated. Toxic doses and inconclusive results are not listed. Cut-off read from the data, not from the text of the source: active = T/C of 150% or more; inactive = T/C below 125%. Peptide text beside a SMILES is read from it. * marks the point of attachment. Boc = CC(C)(C)OC(=O)*

Test system: L1210 leukemia ip in BDF1 mice, survival T/C
Assay: NCI In Vivo Anticancer Drug Screen. Data for tumor model L1210 Leukemia (intraperitoneal) in B6D2F1 (BDF1) mice
Conditions: endpoint: mean survival time, higher = longer survival
In short: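 Read-out is survival time, reported as the treated-group measurement over the vehicle-control measurement.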

[1] = dose: 100.0 mg/kg/injection, schedule: Q01DX009 (ip), vehicle: saline with Tween-80
[2] = dose: 200.0 mg/kg/injection, schedule: Q01DX009 (ip), vehicle: saline with Tween-80
[3] = dose: 25.0 mg/kg/injection, schedule: Q04DX002 (ip), vehicle: saline
[4] = dose: 50.0 mg/kg/injection, schedule: Q04DX002 (ip), vehicle: saline
[5] = dose: 100.0 mg/kg/injection, schedule: Q04DX002 (ip), vehicle: saline

Measured: T/C

O=C(Oc1ccc([N+](=O)[O-])cc1)c1ccccc1S(=O)OCCc1ccccc1 (stereo not given)
inactive: dose: 100.0 mg/kg/injection, schedule: Q01DX001 (ip), vehicle: other 92 % of control | dose: 200.0 mg/kg/injection, schedule: Q01DX001 (ip), vehicle: other 95 % of control

CCN1C(=O)/C(=C\C=C2\SCCN2CI)OC1=S
inactive: dose: 177.6 mg/kg/injection, schedule: Q01DX001 (ip), vehicle: other 98 % of control and 89 % of control | dose: 266.8 mg/kg/injection, schedule: Q01DX001 (ip), vehicle: other 96 % of control | dose: 400.0 mg/kg/injection, schedule: Q01DX001 (ip), vehicle: other 96 % of control and 89 % of control | dose: 600.0 mg/kg/injection, schedule: Q01DX001 (ip), vehicle: other 103 % of control and 87 % of control

CCCCCCCCCCCCCCCCNC(=S)NC1CCCCC1
inactive: dose: 30.0 mg/kg/injection, schedule: Q01DX015 (ip), vehicle: carboxymethylcellulose (CMC) 104 % of control | dose: 60.0 mg/kg/injection, schedule: Q01DX015 (ip), vehicle: carboxymethylcellulose (CMC) 98 % of control | dose: 100.0 mg/kg/injection, schedule: Q01DX001 (ip), vehicle: acetone 100 % of control | [1] 102 % of control | dose: 100.0 mg/kg/injection, schedule: Q04DX003 (ip), vehicle: saline 101 % of control | dose: 120.0 mg/kg/injection, schedule: Q01DX015 (ip), vehicle: carboxymethylcellulose (CMC) 94 % of control | dose: 200.0 mg/kg/injection, schedule: Q01DX001 (ip), vehicle: acetone 88 % of control | [2] 96 % of control | dose: 200.0 mg/kg/injection, schedule: Q04DX003 (ip), vehicle: saline 97 % of control | dose: 240.0 mg/kg/injection, schedule: Q01DX015 (ip), vehicle: carboxymethylcellulose (CMC) 94 % of control and 102 % of control | dose: 400.0 mg/kg/injection, schedule: Q01DX001 (ip), vehicle: acetone 91 % of control | dose: 400.0 mg/kg/injection, schedule: Q04DX003 (ip), vehicle: saline 101 % of control | dose: 480.0 mg/kg/injection, schedule: Q01DX015 (ip), vehicle: carboxymethylcellulose (CMC) 101 % of control

CC1CCN1c1ccccc1 (stereo not given)
inactive: dose: 100.0 mg/kg/injection, schedule: Q04DX003 (ip), vehicle: acetone 88 % of control

NC(=O)NOC(=O)c1ccccc1
inactive: dose: 50.0 mg/kg/injection, schedule: Q01DX Z (ip), vehicle: other 103 % of control | dose: 100.0 mg/kg/injection, schedule: Q01DX Z (ip), vehicle: other 103 % of control | dose: 450.0 mg/kg/injection, schedule: Q01DX Z (ip), vehicle: other 111 % of control | dose: 600.0 mg/kg/injection, schedule: Q01DX Z (ip), vehicle: other 112 % of control

O=C(O)C(C(=O)O)C(=O)O
inactive: dose: 75.0 mg/kg/injection, schedule: Q01DX001 (ip), vehicle: saline 94 % of control | dose: 150.0 mg/kg/injection, schedule: Q01DX001 (ip), vehicle: saline 94 % of control

CC(O)c1cccc(NC(=O)NC2CCCCC2)c1 (stereo not given)
inactive: dose: 100.0 mg/kg/injection, schedule: Q01DX009 (ip), vehicle: Klucel (hydroxypropylcellulose) (HPC) 95 % of control | dose: 200.0 mg/kg/injection, schedule: Q01DX009 (ip), vehicle: Klucel (hydroxypropylcellulose) (HPC) 101 % of control | dose: 400.0 mg/kg/injection, schedule: Q01DX009 (ip), vehicle: Klucel (hydroxypropylcellulose) (HPC) 95 % of control

CCOC(=O)C(COS(=O)(=O)c1ccc(C)cc1)(COS(=O)(=O)c1ccc(C)cc1)C(=O)OCC
inactive: dose: 100.0 mg/kg/injection, schedule: Q01DX009 (ip), vehicle: saline 92 % of control | dose: 100.0 mg/kg/injection, schedule: Q04DX003 (ip), vehicle: Klucel (hydroxypropylcellulose) (HPC) 97 % of control | dose: 200.0 mg/kg/injection, schedule: Q01DX009 (ip), vehicle: saline 94 % of control | dose: 200.0 mg/kg/injection, schedule: Q04DX003 (ip), vehicle: Klucel (hydroxypropylcellulose) (HPC) 93 % of control | dose: 400.0 mg/kg/injection, schedule: Q04DX003 (ip), vehicle: Klucel (hydroxypropylcellulose) (HPC) 93 % of control

C=C1C(=O)OC2/C=C(/C)C(OC(C)=O)CC(O)/C(C)=C\C(OC(=O)/C(C)=C\C)C12 (stereo not given)
inactive: dose: 40.0 mg/kg/injection, schedule: Q01DX009 (ip), vehicle: carboxymethylcellulose (CMC) 101 % of control | dose: 60.0 mg/kg/injection, schedule: Q01DX009 (ip), vehicle: carboxymethylcellulose (CMC) 104 % of control | dose: 80.0 mg/kg/injection, schedule: Q01DX009 (ip), vehicle: carboxymethylcellulose (CMC) 104 % of control | dose: 100.0 mg/kg/injection, schedule: Q01DX009 (ip), vehicle: carboxymethylcellulose (CMC) 98 % of control

Cc1ccc(/C(=N\N=C(N)N)C2CC2)c(C)c1
inactive: dose: 15.0 mg/kg/injection, schedule: Q01DX Z (ip), vehicle: methylcellulose (MC) 89 % of control | dose: 30.0 mg/kg/injection, schedule: Q01DX Z (ip), vehicle: methylcellulose (MC) 98 % of control | dose: 30.0 mg/kg/injection, schedule: Q01DX Z (oral), vehicle: methylcellulose (MC) 103 % of control | dose: 60.0 mg/kg/injection, schedule: Q01DX Z (ip), vehicle: methylcellulose (MC) 95 % of control | dose: 60.0 mg/kg/injection, schedule: Q01DX Z (oral), vehicle: methylcellulose (MC) 97 % of control | dose: 240.0 mg/kg/injection, schedule: Q01DX Z (oral), vehicle: methylcellulose (MC) 86 % of control

CCCCNCCC[P+](c1ccccc1)(c1ccccc1)c1ccccc1
inactive: [3] 115 % of control | [4] 98 % of control | [5] 105 % of control

CC(=O)O[C@H]1CC[C@H]2[C@@H]3[C@H](C)CC4=CC(=O)CCC4[C@H]3CC[C@]12C (stereo not given in full)
inactive: dose: 100.0 mg/kg/injection, schedule: Q01DX001 (sc), vehicle: steriod suspending solution 98 % of control | dose: 200.0 mg/kg/injection, schedule: Q01DX001 (sc), vehicle: steriod suspending solution 100 % of control | dose: 400.0 mg/kg/injection, schedule: Q01DX001 (sc), vehicle: steriod suspending solution 102 % of control

COC(=O)C(Cc1ccccc1)NC(=O)C(Cc1ccccc1)NC(=O)OC(C)(C)C (stereo not drawn) (Boc-Phe-Phe-OMe; configuration not given here)
inactive: dose: 100.0 mg/kg/injection, schedule: Q04DX002 (ip), vehicle: Klucel (hydroxypropylcellulose) (HPC) 94 % of control | dose: 200.0 mg/kg/injection, schedule: Q04DX002 (ip), vehicle: Klucel (hydroxypropylcellulose) (HPC) 101 % of control | dose: 400.0 mg/kg/injection, schedule: Q04DX002 (ip), vehicle: Klucel (hydroxypropylcellulose) (HPC) 108 % of control

CC(=O)OCCC(=O)N1Cc2cc3ccccc3nc2C1
inactive: dose: 10.0 mg/kg/injection, schedule: Q04DX003 (ip), vehicle: alcohol 96 % of control | dose: 20.0 mg/kg/injection, schedule: Q04DX003 (ip), vehicle: alcohol 94 % of control | dose: 40.0 mg/kg/injection, schedule: Q04DX003 (ip), vehicle: alcohol 96 % of control | dose: 80.0 mg/kg/injection, schedule: Q04DX003 (ip), vehicle: alcohol 96 % of control | dose: 160.0 mg/kg/injection, schedule: Q04DX003 (ip), vehicle: alcohol 92 % of control

OC[P+](CO)(CO)CO
inactive: [3] 113 % of control | [4] 103 % of control | [5] 100 % of control and 109 % of control

COC(OC)c1nc(N)[nH]c(=O)c1Cc1ccc(Br)cc1
inactive: dose: 100.0 mg/kg/injection, schedule: Q01DX001 (ip), vehicle: Klucel (hydroxypropylcellulose) (HPC) 105 % of control | [1] 93 % of control | dose: 100.0 mg/kg/injection, schedule: Q04DX003 (ip), vehicle: saline with Tween-80 106 % of control | dose: 200.0 mg/kg/injection, schedule: Q01DX001 (ip), vehicle: Klucel (hydroxypropylcellulose) (HPC) 108 % of control | [2] 102 % of control | dose: 200.0 mg/kg/injection, schedule: Q04DX003 (ip), vehicle: saline with Tween-80 97 % of control | dose: 400.0 mg/kg/injection, schedule: Q01DX001 (ip), vehicle: Klucel (hydroxypropylcellulose) (HPC) 108 % of control | dose: 400.0 mg/kg/injection, schedule: Q01DX009 (ip), vehicle: saline with Tween-80 96 % of control | dose: 400.0 mg/kg/injection, schedule: Q04DX003 (ip), vehicle: saline with Tween-80 97 % of control
